From PMC5007854, “β-Nitrostyrenes as Potential Anti-leishmanial Agents” (Frontiers in Microbiology, 2016)
≈ marks a conversion by molar mass, not a printed value.

Assays:
[1] = test system: Aspergillus fumigatus ATCC 16424; test: Broth microdilution antifungal susceptibility (MIC/MFC); format: cell-based; details: for MIC / MFC: Aspergillus fumigatus; for MIC: ATCC16424, 48 h, read-out: MIC, Af ATCC 16424; for MFC: ATCC16424, ≥99.9% reduction of original inoculum, read-out: MFC, Af ATCC 16424
Text: (§1) One reference each of the following species was used for their in vitro susceptibility to β-nitrostyrene in this study: Staphylococcus aureus ATCC 29213, Staphylococcus epidermidis ATCC 14990, Escherichia coli ATCC 25922, Pseudomonas aeruginosa ATCC 27853, Candida albicans ATCC 90028, Candida glabrata ATCC 90030, Aspergillus fumigatus ATCC 16424 and Aspergillus niger ATCC 16404. These strains were procured from the American Type Culture Collection (ATCC, Manassas, VA, USA).
(§2) The antibacterial and antifungal activities of the β-nitrostyrenes were performed by broth microdilution methods as per the guidelines of Clinical and Laboratory Standard Institute (Wayne, [1998], [2008a],[b],[c]) by using Mueller-Hinton broth (MHB; Becton-Dickinson, Cockeysville, MD, USA) supplemented with calcium (25 mg/L) and magnesium (12.5 mg/L) for bacterial strains while as RPMI 1640 medium with L-glutamine and without sodium bicarbonate, buffered to pH 7.0 with 0.165 M 3-(N-morpholino) propanesulfonic acid (MOPS; both from Sigma) was used for fungal strains. Stock solutions were prepared in 100% dimethyl sulfoxide (DMSO; Sigma; distilled water was used for ciprofloxacin), with a final DMSO concentration of 1% (vol. per vol.) and two-fold serial dilutions were prepared in media in amounts of 100 μL per well in 96-well U-bottom microtiter plates (Tarsons, Kolkata, India) to yield twice the final concentration required for testing, which ranged from 64 to 0.12 μg/mL for β-nitrostyrenes and 16 to 0.03 μg/mL for ciprofloxacin as well as amphotericin B. Stock inoculum suspensions of the bacteria, Candida species and Aspergillus species were prepared in sterile normal saline (0.85%) containing 0.05% polysorbate 20 (NST) from overnight (3 to 5-day old for Aspergillus species) strains grown on Trypticase soy agar (TSA; Becton-Dickinson) and potato dextrose agar (Difco Laboratories, Detroit, MI, USA) respectively at 35°C. Inocula were verified for each assay by plating onto agar plates for colony enumeration. These suspensions were further diluted in the respective test medium and a 100 μl volume of this diluted inoculum was added to each well of the plate, resulting in a final inoculum concentration of approximately 5 × 10^5 CFU/mL for bacter1ia, (Wayne, [2008a]) approximately 2.5 × 10^4 CFU/ml for Candida species (Pfaller et al., [2004]) while as 0.4 × 10^4 to 5 × 10^4 CFU/mL for Aspergillus species (Wayne, [2008c]). Untreated growth control, vehicle control (DMSO) and sterility control wells were included for each isolate tested. Ciprofloxacin and amphotericin B served as the standard drug controls for bacterial and fungal strains, respectively. The microtiter plates were incubated at 35°C for 24 h for bacterial strains and 48 h for fungal strains. The plates were read visually and the minimum inhibitory concentration (MIC) was defined as the lowest concentration of test sample that prevented visible growth with respect to the growth control.
(§3) The minimum bactericidal concentration (MBC) and minimum fungicidal concentration (MFC) were determined by plating 100 μl volumes on agar plates from the wells showing no visible growth (clear MIC well). The plates were incubated as described above in MIC measurements. […] All experiments were conducted twice in duplicates on separate occasions with freshly prepared inoculums and stock solutions.

[2] = test system: Candida albicans ATCC 90028; test: as above; format: cell-based; details: Candida albicans; for MFC: ATCC90028, ≥99.9% reduction of original inoculum, read-out: MFC, Ca ATCC 90028
Text: as §1, §2, §3

[3] = test system: Aspergillus niger ATCC 16404; test: as above; format: cell-based; details: for MIC / MFC: Aspergillus niger; for MIC: ATCC16404, 48 h, read-out: MIC, An ATCC 16404; for MFC: ATCC16404, ≥99.9% reduction of original inoculum, read-out: MFC, An ATCC 16404
Text: as §1, §2, §3

[4] = test system: Candida glabrata ATCC 90030; test: as above; format: cell-based; details: Nakaseomyces glabratus; for MFC: ATCC90030, ≥99.9% reduction of original inoculum, read-out: MFC, Cg ATCC 90030
Text: as §1, §2, §3

[5] = test system: Staphylococcus epidermidis ATCC 14990; test: Broth microdilution antibacterial susceptibility (MIC/MBC); format: cell-based; details: for MIC / MBC: Staphylococcus epidermidis; for MIC: ATCC14990, 24 h, read-out: MIC, Se ATCC 14990; for MBC: ATCC14990, ≥99.9% reduction of original inoculum, read-out: MBC, Se ATCC 14990
Text: as §1, §2, §3

[6] = test system: Staphylococcus aureus ATCC 29213; test: as above; format: cell-based; details: for MIC / MBC: Staphylococcus aureus; for MIC: ATCC29213, 24 h, read-out: MIC, Sa ATCC 29213; for MBC: ATCC29213, ≥99.9% reduction of original inoculum, read-out: MBC, Sa ATCC 29213
Text: as §1, §2, §3

[7] = test system: Pseudomonas aeruginosa ATCC 27853; test: as above; format: cell-based; details: for MIC / MBC: Pseudomonas aeruginosa; for MIC: ATCC27853, 24 h, read-out: MIC, Pa ATCC 27853; for MBC: ATCC27853, ≥99.9% reduction of original inoculum, read-out: MBC, Pa ATCC 27853
Text: as §1, §2, §3

[8] = test system: Escherichia coli ATCC 25922; test: as above; format: cell-based; details: for MIC / MBC: Escherichia coli; for MIC: ATCC25922, 24 h, read-out: MIC, Ec ATCC 25922; for MBC: ATCC25922, ≥99.9% reduction of original inoculum, read-out: MBC, Ec ATCC 25922
Text: as §1, §2, §3

[9] = test system: L. donovani promastigotes; test: Anti-leishmanial screening at 100 μM, parasite viability by microscopy; format: cell-based, Leishmania donovani
Protocol: (§4) L. donovani parasites (MHOM/IN/83/AG83) were maintained in vivo in BALB/c mice. Promastigotes were routinely cultured at 22°C in medium M199 supplemented with 10% heat inactivated fetal bovine serum (FBS, HiMedia Laboratories, Mumbai, India), penicillin 100 (IU/ml), streptomycin (100 μg/ml). Log phase promastigotes were sub-cultured every 72–96 h, the inoculum being 2 × 10^6 cells/ml (Afrin et al., [2002]).
Nitrostyrine series were screened for their antileishmanial activity against L. donovani promastigotes in vitro. Promastigotes of L. donovani (2 × 10^6 cells/mL) in M199 medium were incubated at 22°C for 72 h with each compound at a concentration of 100 μM. Amphotericin B (AmB) served as reference drug, 0.2% DMSO was used as solvent control. Parasites with media alone were taken as control. Parasite viability was determined microscopically after 72 h (Islamuddin et al., [2014b]).

[10] = test system: L. donovani promastigotes; test: Dose-dependent anti-promastigote activity, IC50 and IC90; format: cell-based, Leishmania donovani
Protocol: as §4
AmB was used as a standard antileishmanial drug control. The cell viability was evaluated by microscopically and the mean percentage viability was calculated as follows: Mean cell number of treated parasites / Mean cell number of untreated parasites × 100. The 50 and 90% inhibitory concentration (IC50 and IC90) i.e., the concentration of drugs that decreased the cell growth by 50 and 90% respectively was determined by graphical extrapolation after plotting the graph of % viability vs. concentration of drug (Islamuddin et al., [2014b]).
In vitro antileishmanial activity was expressed as IC50 by linear regression analysis. Values are mean ± SE of samples in triplicate from at least three independent experiments. Statistical analysis was performed using ANOVA followed by Dunnett's test. ^*P < 0.05, ^**P < 0.01 and ^***P < 0.001 compared with the untreated control group were considered significant.

[11] = broth microdilution, 35°C, 48 h
[12] = broth microdilution, 35°C, 24 h

SMILES	MIC [1, 11] [mg/L]	MFC [1] [mg/L]	MFC [2] [mg/L]	MIC [3, 11] [mg/L]	MFC [3] [mg/L]	MFC [4] [mg/L]	MIC [5, 12] [mg/L]	MBC [5] [mg/L]	MIC [6, 12] [mg/L]	MBC [6] [mg/L]	MIC [7, 12] [mg/L]	MBC [7] [mg/L]	MIC [8, 12] [mg/L]	MBC [8] [mg/L]	melting point [°C]	also measured
C/C(=C\c1cccc(O)c1)[N+](=O)[O-] [Compound 20, 3-((E)-2-nitroprop-1-enyl) phenol]	4 to 8 (≈ 22.3 to 44.6 µM)	8 (≈ 44.6 µM)	16 (≈ 89.3 µM)	2 to 4 (≈ 11.2 to 22.3 µM)	4 (≈ 22.3 µM)	8 (≈ 44.6 µM)	2 to 16 (≈ 11.2 to 89.3 µM)	2 (≈ 11.2 µM)	2 to 32 (≈ 11.2 to 179 µM)	4 (≈ 22.3 µM)	16 to 32 (≈ 89.3 to 179 µM)	32 (≈ 179 µM)	16 to 32 (≈ 89.3 to 179 µM)	16 (≈ 89.3 µM)	96 to 98	MIC, Af ATCC 16424 [1, 11]: 8 mg/L (≈ 44.6 µM); MIC, An ATCC 16404 [3, 11]: 4 mg/L (≈ 22.3 µM); MIC, Se ATCC 14990 [5, 12]: 2 mg/L (≈ 11.2 µM); MIC, Sa ATCC 29213 [6, 12]: 2 mg/L (≈ 11.2 µM); MIC, Pa ATCC 27853 [7, 12]: 16 mg/L (≈ 89.3 µM); MIC, Ec ATCC 25922 [8, 12]: 16 mg/L (≈ 89.3 µM); Parasite viability after treatment ([9]; 100 μM, 72 h, phase contrast microscope): All the parasites were found to be dead; Anti-leishmanial activity, in words (compounds with IC50 determined) ([10]; L. donovani promastigotes): moderately active; IC50 ([10]; Leishmania donovani, 72 h, 22°C, values given in μM, read-out: IC50 against promastigotes): 63.2 ± 2.06 µM
CC/C(=C(/C)c1cccc(O)c1)[N+](=O)[O-] [Compound 26, 3-((E)-3-nitropent-2-en-2-yl)phenol]	> 64	> 64	> 64	64 (≈ 309 µM)	> 64	> 64	8 (≈ 38.6 µM)	8 (≈ 38.6 µM)	8 (≈ 38.6 µM)	16 (≈ 77.2 µM)	> 64	> 64	> 64	> 64	138 to 140	MIC ([2]; ATCC90028, 48 h, broth microdilution, 35°C, 48 h, read-out: MIC, Ca ATCC 90028): > 64 mg/L; MIC ([4]; ATCC90030, 48 h, broth microdilution, 35°C, 48 h, read-out: MIC, Cg ATCC 90030): > 64 mg/L; Anti-leishmanial activity, in words (SAR discussion) ([9]; L. donovani promastigotes): loss of activity
